Data: patent publication US20150210740A1, “PSEUDOURIDIMYCIN (PUM) AND ITS DERIVATIVES” (NEW-ANTI-INFECTIVES CONSORTIUM S.C.A.R.L., priority 2012, published 2015)
≈ marks a conversion by molar mass, not a printed value. Read-outs that look alike come from different tables or passages of the source.

What was measured:
[1] = test system: HeLa nuclear extract; assay: RNAP inhibition, HeLa nuclear extract; type: biochemical, Human
[2] = target: B. subtilis β(Q469R) (Bacillus subtilis, UniProt P37870+P37871, Q469R); assay: RNAP inhibition, rifampicin-resistant B. subtilis RNAP; type: biochemical
Sequence of B. subtilis β(Q469R) (P20429 whole entry): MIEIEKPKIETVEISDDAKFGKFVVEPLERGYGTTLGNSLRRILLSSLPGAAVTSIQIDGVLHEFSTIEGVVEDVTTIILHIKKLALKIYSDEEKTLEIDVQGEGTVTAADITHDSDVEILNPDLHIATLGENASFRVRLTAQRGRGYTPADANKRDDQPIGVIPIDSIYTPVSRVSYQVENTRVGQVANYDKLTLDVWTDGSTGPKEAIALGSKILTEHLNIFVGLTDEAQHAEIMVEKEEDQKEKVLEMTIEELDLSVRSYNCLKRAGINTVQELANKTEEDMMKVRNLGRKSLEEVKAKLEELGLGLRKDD
Sequence of B. subtilis β(Q469R) (P37870 whole entry Q469R): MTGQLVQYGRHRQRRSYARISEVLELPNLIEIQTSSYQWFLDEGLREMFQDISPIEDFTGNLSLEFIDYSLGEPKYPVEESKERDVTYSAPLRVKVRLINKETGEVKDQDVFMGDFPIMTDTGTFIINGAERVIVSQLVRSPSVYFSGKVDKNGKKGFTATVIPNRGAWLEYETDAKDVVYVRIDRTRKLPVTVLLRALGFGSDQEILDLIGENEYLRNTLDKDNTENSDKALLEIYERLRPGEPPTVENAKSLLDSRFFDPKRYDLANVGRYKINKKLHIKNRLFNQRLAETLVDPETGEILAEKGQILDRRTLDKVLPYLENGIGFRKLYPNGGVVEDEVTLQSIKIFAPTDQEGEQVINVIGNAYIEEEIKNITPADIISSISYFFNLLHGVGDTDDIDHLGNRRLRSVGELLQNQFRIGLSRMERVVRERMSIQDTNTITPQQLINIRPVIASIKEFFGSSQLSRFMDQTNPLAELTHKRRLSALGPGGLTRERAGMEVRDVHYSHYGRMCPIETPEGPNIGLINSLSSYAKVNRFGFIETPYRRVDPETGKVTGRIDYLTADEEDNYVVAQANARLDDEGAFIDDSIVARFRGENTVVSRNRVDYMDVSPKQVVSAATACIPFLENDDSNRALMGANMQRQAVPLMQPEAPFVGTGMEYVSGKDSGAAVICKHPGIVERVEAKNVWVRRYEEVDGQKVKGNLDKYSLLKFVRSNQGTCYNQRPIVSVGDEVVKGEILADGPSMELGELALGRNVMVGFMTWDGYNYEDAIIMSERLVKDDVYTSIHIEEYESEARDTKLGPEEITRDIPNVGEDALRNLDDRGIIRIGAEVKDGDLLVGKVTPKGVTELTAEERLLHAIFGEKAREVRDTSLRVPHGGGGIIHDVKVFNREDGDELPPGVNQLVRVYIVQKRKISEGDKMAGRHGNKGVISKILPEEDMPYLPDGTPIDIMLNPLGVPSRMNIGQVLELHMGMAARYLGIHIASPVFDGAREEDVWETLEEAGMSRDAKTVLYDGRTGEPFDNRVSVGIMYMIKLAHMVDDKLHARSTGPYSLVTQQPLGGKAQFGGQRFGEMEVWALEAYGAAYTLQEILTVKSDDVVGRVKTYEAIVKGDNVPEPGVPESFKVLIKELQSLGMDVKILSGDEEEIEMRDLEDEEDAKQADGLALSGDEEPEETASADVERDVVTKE
Sequence of B. subtilis β(Q469R) (P37871 whole entry): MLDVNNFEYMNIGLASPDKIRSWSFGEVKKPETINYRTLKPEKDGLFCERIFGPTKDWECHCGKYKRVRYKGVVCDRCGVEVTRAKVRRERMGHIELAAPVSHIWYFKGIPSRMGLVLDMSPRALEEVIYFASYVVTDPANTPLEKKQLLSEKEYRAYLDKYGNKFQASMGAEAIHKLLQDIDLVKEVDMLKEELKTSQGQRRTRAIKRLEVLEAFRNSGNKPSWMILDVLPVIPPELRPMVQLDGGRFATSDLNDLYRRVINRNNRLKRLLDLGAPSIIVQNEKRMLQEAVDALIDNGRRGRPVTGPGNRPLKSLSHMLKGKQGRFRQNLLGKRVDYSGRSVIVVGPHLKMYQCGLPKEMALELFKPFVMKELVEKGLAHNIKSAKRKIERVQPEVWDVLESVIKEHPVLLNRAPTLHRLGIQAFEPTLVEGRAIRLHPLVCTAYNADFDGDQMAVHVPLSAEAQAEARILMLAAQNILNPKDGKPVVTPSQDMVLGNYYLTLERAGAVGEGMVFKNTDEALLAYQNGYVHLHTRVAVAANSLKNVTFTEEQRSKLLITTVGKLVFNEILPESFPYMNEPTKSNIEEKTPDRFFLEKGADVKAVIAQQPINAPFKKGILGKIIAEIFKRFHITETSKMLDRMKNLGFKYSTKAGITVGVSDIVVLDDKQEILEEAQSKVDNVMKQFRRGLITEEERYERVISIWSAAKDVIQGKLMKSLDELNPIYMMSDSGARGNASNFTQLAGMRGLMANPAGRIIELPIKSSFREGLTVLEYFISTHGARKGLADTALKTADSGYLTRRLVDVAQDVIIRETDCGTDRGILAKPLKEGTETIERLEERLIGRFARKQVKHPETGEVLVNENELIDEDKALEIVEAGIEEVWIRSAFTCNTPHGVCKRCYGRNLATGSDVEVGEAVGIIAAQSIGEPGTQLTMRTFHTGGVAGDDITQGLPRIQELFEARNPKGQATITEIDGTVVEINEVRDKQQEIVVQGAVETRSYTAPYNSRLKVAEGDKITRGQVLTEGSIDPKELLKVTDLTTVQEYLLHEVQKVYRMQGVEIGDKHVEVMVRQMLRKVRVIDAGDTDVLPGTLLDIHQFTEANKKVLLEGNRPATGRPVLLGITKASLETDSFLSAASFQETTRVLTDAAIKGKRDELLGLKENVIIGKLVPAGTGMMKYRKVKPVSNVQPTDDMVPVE
Sequence of B. subtilis β(Q469R) (O35011 whole entry, further chain): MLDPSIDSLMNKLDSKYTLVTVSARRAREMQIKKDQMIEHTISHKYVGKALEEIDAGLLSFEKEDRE

[3] = target: T1, E. coli RNAP (Escherichia coli, UniProt P0A8T7+P0A8V2); assay: RNAP inhibition, E. coli RNAP; type: biochemical
T1 construct: an RNAP purified from either Escherichia coli (Sigma Aldrich) or Bacillus subtilis; purchased Sigma Aldrich; host or cells: Escherichia coli
Description: (§1) The effect of PUM on bacterial RNAP is measured using an RNAP purified from either Escherichia coli (Sigma Aldrich) or Bacillus subtilis as described by Qi and Hulett (Qi Y, Hulett F M., Mol. Microbiol. 1998, 28(6):1187-1197). The bacterial RNAPs are used at 1.1 mg/ml, while the RNAP from bacteriophage T7 (Promega Corporation) is used at 20 U/ml. The nuclear extracts from HeLa cells (Human cervix carcinoma fibroblast; Promega Corporation) or NSO cells (non IgG secreting mouse myeloma lymphoblast; prepared as described by Dignam J D, Lebovitz R M, Roeder R G., Nucleic Acids Res. 1983, 11(5):1475-89) are used at 18 mg/ml. The reaction mixtures (50 μl) contain 40 mM Tris-HCl (pH 7.9), 6 mM MgCl2, 2 mM spermidine, 10 mM NaCl, 10 mM DTT, 10 μg/ml bovine serum albumin, 100 μM ATP, CTP and GTP, 2 μM UTP, 0.5 μCi [α-^32P]UTP, PUM at the desired concentration, RNAP and template DNA. The templates used for the transcription are the plasmid pGEM3Z (20 nM; Promega Corporation) for the bacterial and phagic RNAPs, and DNA derived from calf thymus (20 μg/ml; Sigma Aldrich) for the eukaryotic polymerases. After 30 min. (bacterial and phagic RNAPs) or 60 min. at 37° C., the amount of radioactivity obtained after precipitation with trichloroacetic acid is measured as previously described (Mariani R, Granata G, Maffioli S I, Serina S, Brunati C, Sosio M, Marazzi A, Vannini A, Patel D, White R, Ciabatti R. Bioorg Med Chem Lett. 2005, 15(16):3748-3752).

[4] = test system: NSO nuclear extract; assay: RNAP inhibition, NSO nuclear extract; type: biochemical, mouse
[5] = target: T2, B. subtilis RNAP (Bacillus subtilis, UniProt P37870+P37871); assay: RNAP inhibition, B. subtilis RNAP; type: biochemical
T2 construct: an RNAP purified from either Escherichia coli (Sigma Aldrich) or Bacillus subtilis; made in house; host or cells: Bacillus subtilis
T2 sequence (O35011 whole entry): as the sequence (O35011 whole entry, further chain) above
T2 sequence (P37871 whole entry): as the sequence (P37871 whole entry) above
T2 sequence (P20429 whole entry, further chain): as the sequence (P20429 whole entry) above
T2 sequence (P37870 whole entry): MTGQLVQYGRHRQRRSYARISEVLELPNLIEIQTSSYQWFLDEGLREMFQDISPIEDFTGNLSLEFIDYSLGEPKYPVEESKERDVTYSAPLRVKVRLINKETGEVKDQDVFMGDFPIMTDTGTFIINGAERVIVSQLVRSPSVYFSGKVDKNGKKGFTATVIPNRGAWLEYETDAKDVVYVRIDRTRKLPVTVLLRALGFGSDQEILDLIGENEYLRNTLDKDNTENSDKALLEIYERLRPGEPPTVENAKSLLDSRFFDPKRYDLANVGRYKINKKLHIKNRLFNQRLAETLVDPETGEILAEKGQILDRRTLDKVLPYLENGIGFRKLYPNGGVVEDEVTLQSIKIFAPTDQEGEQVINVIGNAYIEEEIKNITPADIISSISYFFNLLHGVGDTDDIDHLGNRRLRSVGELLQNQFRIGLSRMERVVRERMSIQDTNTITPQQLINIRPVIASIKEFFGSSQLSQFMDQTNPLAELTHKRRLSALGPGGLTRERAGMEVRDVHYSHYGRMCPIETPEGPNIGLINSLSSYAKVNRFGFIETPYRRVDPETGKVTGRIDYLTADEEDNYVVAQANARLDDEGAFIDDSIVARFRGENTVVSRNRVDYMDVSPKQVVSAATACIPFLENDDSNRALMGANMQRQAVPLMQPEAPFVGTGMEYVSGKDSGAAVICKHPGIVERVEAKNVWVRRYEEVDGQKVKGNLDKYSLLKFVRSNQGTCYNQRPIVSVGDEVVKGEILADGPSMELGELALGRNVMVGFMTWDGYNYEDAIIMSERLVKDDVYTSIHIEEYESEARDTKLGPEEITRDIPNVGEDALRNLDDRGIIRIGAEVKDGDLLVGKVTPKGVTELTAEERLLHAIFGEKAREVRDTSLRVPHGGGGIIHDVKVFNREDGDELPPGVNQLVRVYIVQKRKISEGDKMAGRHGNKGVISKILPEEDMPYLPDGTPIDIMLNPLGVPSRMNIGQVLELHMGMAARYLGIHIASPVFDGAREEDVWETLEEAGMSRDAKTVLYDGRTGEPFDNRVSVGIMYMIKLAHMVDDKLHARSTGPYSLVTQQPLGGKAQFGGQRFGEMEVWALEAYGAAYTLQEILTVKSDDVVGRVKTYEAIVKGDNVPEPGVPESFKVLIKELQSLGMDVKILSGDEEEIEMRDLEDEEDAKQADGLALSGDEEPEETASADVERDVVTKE
Description: as §1

[6] = test system: T3, bacterial RNAP; assay: Inhibition of bacterial RNAP; type: biochemical; details: RNAP of both Gram-positive and Gram-negative bacteria; read-out: IC50 (concentration producing 50% inhibition of enzyme activity), bacterial RNAP
T3 construct: other: RNAP of both Gram-positive and

[7] = test system: Gram-positive and Gram-negative susceptible, resistant and multi-resistant pathogenic bacteria; assay: Growth inhibition of pathogenic bacteria; type: cell-based; details: human serum 30%
Description: (§2) The antibacterial activity is determined by evaluating the effect on the growth kinetics as described (Holowachuka S, Bal'ab M, Buddington R., 2003, J. Microbiol. Meth. 55, 441-446). Micro-organisms are grown in either Todd Hewitt medium (Streptococcus pyogenes) or cation-adjusted Mueller Hinton Broth (S. aureus, E. faecium, M catarrhalis, E. coli, P. aeruginosa, S. maltophilia) on 96-well microtiter plates. Each bacterial strain is inoculated with 5×10^4 CFU/ml and incubated at 37° C. on the Synergy 2 reader (BioTek), and the optical density is monitored at 595 nm for 48 h.

[8] = test system: Neisseria meningitidis L1612; assay: Growth inhibition (MIC), Neisseria meningitidis; type: cell-based
[9] = test system: Streptococcus pyogenes; assay: Growth inhibition (MIC), Streptococcus pyogenes; type: cell-based; details: Streptococcus pyogenes L49
Description: as §2

[10] = test system: Haemophilus influenzae L3296; assay: Growth inhibition (MIC), Haemophilus influenzae; type: cell-based
[11] = test system: S. pyogenes C203; assay: S. pyogenes peritonitis model in mice; type: in vivo, ICR female mice; details: for ED50: Streptococcus pyogenes
Description: ICR female mice (Harlan Italia) weighing 23-25 g are acclimated (23±2° C., humidity, 55±10% humidity) for one week before the experiment. The infection is induced by intraperitoneal injection of 4×10^3 CFU of S. pyogenes […] in 0.5 mL of saline containing 1% peptone. 48-72 h after infection, this inoculum leads to a mortality of at least 95% in untreated controls. Eight mice per group for each dose are treated with 0.25 mL of PUM prepared in 5% dextrose. Two different experiments were performed: in the first experiment, PUM is administered intravenously 10 min. after the infection and 6 hours later; in the second experiment, PUM is administered as a single intravenous or subcutaneous dose 10 min. after infection. The mortality of the animals is recorded daily. The ED50 (50% effective dose) and 95% confidence limits are calculated as described (Finney, D. J. 1952. The Spearman-Kärber method. P. 524-30. In D. J. Finney (ed.) Statistical method in biological assay. Charles Griffin & Company Limited, London) for surviving animals at day 7 at each dose.

[12] = test system: Streptococcus pneumoniae; assay: Growth inhibition (MIC), Streptococcus pneumoniae; type: cell-based
Description: [Worded in the source for another organism; used here, by the source, with some conditions changed.] as §2

[13] = test system: Moraxella catarrhalis L3294; assay: Growth inhibition (MIC), Moraxella catarrhalis; type: cell-based
Description: as §2

[14] = target: T4, T7 RNAP (Escherichia phage T7, UniProt P00573); assay: RNAP inhibition, T7 RNAP; type: biochemical, bacteriophage T7
T4 construct: purchased Promega Corporation
T4 sequence (P00573 whole entry): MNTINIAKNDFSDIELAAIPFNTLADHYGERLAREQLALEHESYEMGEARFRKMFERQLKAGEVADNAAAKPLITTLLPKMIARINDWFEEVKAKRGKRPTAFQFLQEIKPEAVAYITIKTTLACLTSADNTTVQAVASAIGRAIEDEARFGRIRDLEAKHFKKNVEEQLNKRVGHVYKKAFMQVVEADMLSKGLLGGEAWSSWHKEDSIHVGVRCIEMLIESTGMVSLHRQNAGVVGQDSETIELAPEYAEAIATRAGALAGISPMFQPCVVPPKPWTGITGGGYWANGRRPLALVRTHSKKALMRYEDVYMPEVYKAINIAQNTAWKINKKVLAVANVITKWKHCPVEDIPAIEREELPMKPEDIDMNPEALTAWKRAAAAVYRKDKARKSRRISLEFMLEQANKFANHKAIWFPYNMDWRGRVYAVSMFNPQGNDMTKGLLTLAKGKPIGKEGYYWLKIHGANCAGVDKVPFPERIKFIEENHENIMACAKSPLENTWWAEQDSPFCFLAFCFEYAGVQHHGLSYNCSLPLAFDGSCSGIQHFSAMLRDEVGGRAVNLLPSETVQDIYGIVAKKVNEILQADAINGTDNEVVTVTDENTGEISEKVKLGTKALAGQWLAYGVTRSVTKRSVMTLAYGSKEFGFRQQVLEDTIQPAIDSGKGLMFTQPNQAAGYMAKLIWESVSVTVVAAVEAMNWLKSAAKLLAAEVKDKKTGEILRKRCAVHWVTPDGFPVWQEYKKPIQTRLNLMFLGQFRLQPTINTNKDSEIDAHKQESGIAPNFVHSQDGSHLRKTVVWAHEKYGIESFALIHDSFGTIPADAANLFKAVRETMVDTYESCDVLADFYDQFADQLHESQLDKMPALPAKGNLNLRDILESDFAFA
Description: as §1, with “The templates used for the transcription are the plasmid pGEM3Z (20 nM; Promega Corporation) for the bacterial and phagic RNAPs, and DNA derived from calf thymus (20 μg/ml; Sigma Aldrich) for the eukaryotic polymerases. After 30 min.” left out

[15] = target: T5, bacterial RNAP (UniProt P0A8T7+P0A8V2); assay: Inhibition of bacterial RNAP; type: biochemical; details: read-out: IC50, bacterial RNAP; reaction mixture used as is for the bioactivity tests
T5 construct: other: reaction mixture used as is for the bioactivity tests

CCc1c(Cl)c(O)c(Cl)c(O)c1C(=O)O[C@H]1[C@H](O)[C@H](OC)[C@H](OC/C2=C\C=C\C[C@H](O)/C(C)=C/[C@H](CC)[C@@H](O[C@@H]3OC(C)(C)[C@@H](OC(=O)C(C)C)[C@H](O)[C@@H]3O)/C(C)=C/C(C)=C/C[C@@H]([C@@H](C)O)OC2=O)O[C@@H]1C [Fdx, fidaxomicin, reference compound]
IC50 [1]: > 92000 nM
IC50 [2]: 700 nM
IC50 [3]: 5500 nM
IC50 [4]: 42000 nM
IC50 [5]: 900 nM

N=C(N)NCC(=O)N(O)[C@@H](CCC(N)=O)C(=O)NC[C@H]1O[C@@H](c2c[nH]c(=O)[nH]c2=O)[C@H](O)[C@@H]1O [PUM, Pseudouridimycin]
IC50 [1]: > 74000 nM
IC50 [2]: 100 nM
cross-resistance with rifampicin ([2]; RNAP inhibition, Table 1): without showing any cross-resistance with rifampicin
IC50 [6]: 300 to 400 nM
IC50 [3]: 300 nM
IC50 [4]: 205000 nM
effect of human serum on antibacterial activity [7]: not affected by the presence of human serum
IC50 [5]: 400 nM
MIC [8]: 10 µg/mL (≈ 20.6 µM)
MIC ([9]; human serum 30% present): 2 µg/mL
MIC ([9]; human serum absent, read-out: MIC): 2 µg/mL
MIC [10]: 0.8 µg/mL (≈ 1.64 µM)
ED50 ([11]; C203, iv, iv: 10 min. and 6 h post-infection, survival at day 7): 10 mg/kg
ED50 ([11]; C203, iv, iv: 10 min. post-infection, survival at day 7): 20 mg/kg
ED50 ([11]; C203, murine model of Streptococcus peritonitis, regimen not given): 10 mg/kg
ED50 ([11]; C203, sc, sc: 10 min. post-infection, survival at day 7): 20 mg/kg
effectiveness after intravenous versus subcutaneous administration ([11]; murine Streptococcus peritonitis): comparable effectiveness
MIC ([12]; Streptococcus pneumoniae L44, human serum 30% present): 2 µg/mL
MIC ([12]; Streptococcus pneumoniae L44, human serum absent): 3 µg/mL
MIC ([12]; Streptococcus pneumoniae L899-Rif^R, human serum absent): 3 µg/mL
MIC ([12]; Streptococcus pneumoniae L1407-Azi^R, human serum absent): 3 µg/mL
MIC ([12]; Streptococcus pneumoniae L1542-Ami^REry^RCli^RGen^RTet^R, human serum absent): 3 µg/mL
MIC ([12]; Streptococcus pneumoniae L2868-8 MDR, human serum absent): 3 µg/mL
MIC ([12]; Streptococcus pneumoniae L3909-Pen^REry^RChl^RCtr^R, human serum absent): 2 µg/mL
MIC ([12]; Streptococcus pneumoniae ND061311-Pen^RAzi^R, human serum absent): 3 µg/mL
MIC [13]: 0.8 µg/mL
IC50 [14]: > 205000 nM

CO[C@H]1/C=C/O[C@@]2(C)Oc3c(C)c(O)c4c(O)c(c(/C=N/N5CCN(C)CC5)c(O)c4c3C2=O)NC(=O)/C(C)=C\C=C\[C@H](C)[C@H](O)[C@@H](C)[C@@H](O)[C@@H](C)[C@H](OC(C)=O)[C@@H]1C [Rif, rifampicin, reference compound]
IC50 [2]: > 121000 nM
IC50 [3]: 60 nM
IC50 [5]: 50 nM
IC50 [14]: > 121000 nM

N=C(N)NCC(=O)N(O)[C@@H](CCC(=O)NCc1ccccc1)C(=O)NC[C@H]1O[C@@H](c2c[nH]c(=O)[nH]c2=O)[C@H](O)[C@@H]1O [compound III, PUM benzylamide]
IC50 [15]: 4000 nM
